Like-named read-outs stand apart in the source and are kept apart here.
Tests used:
Gal3 CRD [1] = molecular target: T1, Gal3 CRD (Homo sapiens, UniProt P17931); test: Tryptophan fluorescence spectroscopy (TFS), Gal3 CRD; format: binding; settings: 10 μM Gal3 CRD; 25 °C; pH 7.4; read-out: KD (TFS, non-linear regression)
T1 construct: The carbohydrate recognition domain (Pro106-Ile250) of human Gal3 (Gal3 CRD); His-tag; made in house; host or cells: Escherichia coli BL21(DE3)
Source text: (§1) The formation of Gal3–Au^3+TTPS complexes can be followed by the changes in the intrinsic or tryptophan fluorescence spectroscopy. Binding of the metal-based drug to Gal3 FL caused a red shift of the maximum emission wavelength of about 9 nm (339 nm to 348 nm), as well as a decrease in fluorescence intensity. This is indicative of indole side chains of Trp residues being exposed on the protein surface. […] The hyperbolic nature of the binding curves of gold porphyrin to of Gal3 FL and Gal3 CRD is indicative of the presence of a single binding site for the ligand.
(§2) Figure 3 TFS measurements of complex formation with Gal3. […] The data points were plotted as means ± standard error of the mean for three independent experimental data sets.
(§3) Tryptophan fluorescence spectroscopy (TFS) was performed on a Shimadzu spectrofluorometer (Shimadzu, Kyoto, Japan). […] Total fluorescence was calculated after normalization of the fluorescence spectra and corrected for dilution. In order to account for the inner filter and the self-absorption effects, the experiments were always carried out on samples with absorbance (OD280nm) less than 0.05. Absorbance was measured using a spectrophotometer (Beckman, Brea, CA, USA). All measurements were performed at 25 °C, with the temperature of the samples determined in the cuvette with an accuracy of ± 0.2 °C.

[2] = molecular target: T2, full-length Gal3 (Gal3 FL) (Homo sapiens, UniProt P17931); test: Microscale thermophoresis (MST), Gal3 FL; format: binding
T2 construct: Recombinant human galectin-3 (Gal3, 26 kDa, full-length galectin-3 or Gal3 FL); made in house
Source text: Microscale thermophoresis (MST) is a very sensitive, immobilization-free interaction technique that is based on the speed of migration away from a central point in the capillary that is hit by an infra-red laser at time 0 (Figure 1).
Microscale thermophoresis (MST) is a technique to quantify biomolecular interactions by measuring the directed movement of molecules in a microscopic temperature gradient induced by an infrared laser. The directed movement of molecules in thin capillaries was detected and quantified by means of a red-light fluorophore (NT-647-NHS, with excitation maximum at 647 nm and emission maximum at 670 nm) covalently linked to Gal3 proteins. For labelling, we used two times the concentration of the protein (16 μM Gal3 FL, 43 μM Gal3 CRD) for the fluorophore. Removal of excess fluorphore was combined with buffer exchange into 20 mM Hepes, pH 7.4 with 150 mM NaCl and 0.05% Tween-20.
A two-fold dilution series of ligand concentrations was established ranging from 239 μM to […], with a constant concentration of 4 μM Gal3 FL and 22 μM Gal3 CRD. The samples were loaded into standard glass capillaries and readings were performed with the red light of a Monolith NT.115, with LED power setting of 20% and an MST power setting of 40%. […] The same procedure was repeated for Gal3 CRD and using roscovitine as a ligand. The data were analyzed using the MO Affinity Analysis software v2.2.4.

Gal3 CRD [3] = molecular target: T1, Gal3 CRD; test: MST capillary scan, fit to initial fluorescence, Gal3 CRD; format: binding
Source text: (§4) The large and unwanted initial fluorescence changes (Figure 1D) are unlikely to originate from Trp181 near the lactose-binding site of Gal3 CRD, because the MST was run using red fluorescence excitation and emission wavelengths. Also, although Gal3 FL has three tryptophans (Trp22, Trp26 and Trp181) instead of a single one (Trp181) in Gal3 CRD, it appears less affected (Figure 1A versus D). Therefore, there is more likely an involvement of NT-647-NHS-labelled lysine residues near the binding site of Au^3+TTPS. This involvement of labelled lysines enabled the fit based on the initial fluorescence data (Figure 2). […] Therefore, we initiated tryptophan fluorescence spectroscopy measurements (TFS).
(§5) Microscale thermophoresis (MST) is a technique to quantify biomolecular interactions by measuring the directed movement of molecules in a microscopic temperature gradient induced by an infrared laser. The directed movement of molecules in thin capillaries was detected and quantified by means of a red-light fluorophore (NT-647-NHS, with excitation maximum at 647 nm and emission maximum at 670 nm) covalently linked to Gal3 proteins. […]
(§6) A two-fold dilution series of ligand concentrations was established ranging from 239 μM to […], with a constant concentration of 4 μM Gal3 FL and 22 μM Gal3 CRD. […] The data were analyzed using the MO Affinity Analysis software v2.2.4.

Gal3 FL [4] = molecular target: T3, Gal3 FL (Homo sapiens, UniProt P17931); test: MST capillary scan, fit to initial fluorescence, Gal3 FL; format: binding; settings: capillary scan values, time point 0, read-out: KD from fit of initial (before thermophoresis) fluorescence
T3 construct: Recombinant human galectin-3 (Gal3, 26 kDa, full-length galectin-3 or Gal3 FL); made in house
Source text: as §4, §5, §6

Gal3 FL [5] = molecular target: T3, Gal3 FL; test: Isothermal titration calorimetry (ITC), Gal3 FL; format: binding; settings: 22 °C
Source text: We used isothermal titration calorimetry (ITC), which is a molecular interaction technique ideal for the reliable determination of stoichiometric ratios in the protein soluble state. […] The reaction is exothermic and enthalpy driven with a heat release of −5363 ± 196.4 cal/mol, indicating a substantial number of non-covalent bonding during complex formation. Moreover, the interaction also profits from a significant entropic contribution of 1956 cal/mol.
A VP-ITC MicroCal instrument (Malvern Panalytical Ltd, Malvern, UK) with cell volume of 1.4253 mL was used at 22 °C for the measurement of the stoichiometric ratio and the enthalpy/entropy contributions to the binding of gold prophyrin to Gal3 FL. Prior to the experiment, the Gal3 FL protein was dialyzed extensively against 20 mM Hepes at pH 7.4 and 150 mM NaCl, the buffer used for the experiment.

Gal3 CRD [6] = molecular target: T1, Gal3 CRD; test: Isothermal titration calorimetry (ITC), Gal3 CRD; format: binding; settings: Gal3 CRD 32.67 μM, also at twice higher concentrations
Gal3 FL [7] = molecular target: T3, Gal3 FL; test: Tryptophan fluorescence spectroscopy (TFS), Gal3 FL; format: binding; settings: 2 μM Gal3 FL; 25 °C; pH 7.4; read-out: KD (TFS, non-linear regression)
Source text: as §1, §2, §3

Gal3 = settings: cited from earlier work
Gal3 CRD [8] = molecular target: T1, Gal3 CRD; parameters: method as in PMID 31094416; settings: ref 46; cited from earlier work

T3 sequence (P17931 whole entry): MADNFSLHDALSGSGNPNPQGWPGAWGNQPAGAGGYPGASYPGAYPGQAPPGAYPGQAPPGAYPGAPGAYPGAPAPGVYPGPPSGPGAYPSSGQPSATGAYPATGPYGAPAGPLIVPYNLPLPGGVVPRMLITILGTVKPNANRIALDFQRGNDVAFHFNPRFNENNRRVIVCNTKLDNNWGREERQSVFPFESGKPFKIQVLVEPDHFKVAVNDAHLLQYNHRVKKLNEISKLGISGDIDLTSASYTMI
T2 sequence (P17931 whole entry): as above
T1 sequence (P17931 106-250): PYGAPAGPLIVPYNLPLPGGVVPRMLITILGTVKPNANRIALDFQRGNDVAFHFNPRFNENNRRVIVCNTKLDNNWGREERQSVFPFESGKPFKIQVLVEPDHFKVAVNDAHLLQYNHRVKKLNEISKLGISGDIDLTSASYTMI

Compound: 5,10,15,20-Tetrakis(4-sulfonatophenyl)-porphyrin-Au(III)chloride [Au^3+TPPS]
- Kd (Gal3 CRD [1]): 22.7 ± 5.6 µM
- binding after SDS denaturation of Gal3 FL (SD test) ([2]; Gal3 FL denatured with 4% SDS, 40 mM DTT, 95 °C, same concentration series): without observing binding
- Kd ([2]; Gal3 FL labelled with NT-647-NHS, 4 μM Gal3 FL, thermophoresis read-out, read-out: KD (MST curves)): 2.84 ± 1.03 µM
- Kd (Gal3 CRD [3]; Gal3 CRD, capillary scan values, time point 0, read-out: KD from fit of initial (before thermophoresis) fluorescence): 25.9 ± 0.65 µM
- weaker binding of truncated Gal3 (CRD) versus Gal3 FL (Gal3 CRD [3]; comparison of initial fluorescence fits): at Least 5 fold
- Kd (Gal3 FL [4]): 5.83 ± 0.65 µM
- change in Gibbs free energy (ΔG) (ITC) (Gal3 FL [5]): -7.326 kcal/mol
- entropic contribution (ITC) (Gal3 FL [5]): 1.956 kcal/mol
- heat release (enthalpy) (ITC) (Gal3 FL [5]): -5.363 ± 0.1964 kcal/mol
- stoichiometry (ITC) (Gal3 FL [5]): 1.02 ± 0.03 sites
- Kd (Gal3 FL [5]; 20 mM Hepes pH 7.4, 150 mM NaCl, read-out: equilibrium dissociation constant KD (ITC)): 3.78 ± 0.27 µM
- ITC titration result with Gal3 CRD (Gal3 CRD [6]): no measurable results
- Kd (Gal3 FL [7]): 2.6 ± 0.6 µM

Compound: OC[C@H]1O[C@@H](O[C@H]2[C@H](O)[C@@H](O)C(O)O[C@@H]2CO)[C@H](O)[C@@H](O)[C@H]1O (mixture of isomers) [lactose]
- inhibition of Zn^2+TTPS binding to Gal3 (Gal3; ref 42): did not inhibit

Compound: CC(=O)N[C@H]1C(O)O[C@H](CO)[C@@H](O[C@@H]2O[C@H](CO)[C@H](O)[C@H](O)[C@H]2O)[C@@H]1O (some centres unmarked) [N-acetyllactosamine]
- Kd (Gal3; ref 43): 25 µM
- Kd (Gal3; ref 44): 28 µM
- Kd (Gal3; ref 45): 112 µM
- Kd (Gal3; ref 46): 118 µM

Compound: CC[C@H](CO)Nc1nc(NCc2ccccc2)c2ncn(C(C)C)c2n1 [roscovitine, reference compound]
- affinity between Gal3 FL and ligand (MST) ([2]; Gal3 FL, MST): no affinity

Compound: CD146: cluster of differentiation 146, melanoma cell adhesion molecule, cell surface glycoprotein
- affinity for Gal3 CRD (Gal3 CRD [8]): unmeasurable
